Reference: ChEMBL document CHEMBL1201862, “PubChem BioAssay data set” (2004)
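Where inhibition never reached the appropriate level, the endpoint shown equals the highest concentration tested. Otherwise, values were interpolated linearly from a five-concentration, 48-hour dose response in 96-well plates. Here, GI50 denotes the concentration required for 50% inhibition of growth.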 Calls of active or inactive are those of the source. Rule as the data show it: active = GI50 up to about 1.1 µM and inactive = higher.

Assays:
Experiment in all cases: NCI anticancer screen, dose series, 48 h
[1] = test system: A549
[2] = test system: 786-0
[3] = test system: SR
[4] = test system: TK-10
[5] = test system: SK-MEL-5
[6] = test system: PC-3
[7] = test system: K562
[8] = test system: MDA-N
[9] = test system: CCRF-CEM
[10] = test system: MDA-MB-435
[11] = test system: SK-MEL-28
[12] = test system: HCT-116
[13] = test system: ACHN
[14] = test system: SF-539
[15] = test system: HOP-92
[16] = test system: UO-31
[17] = test system: Malme-3M
[18] = test system: T47D
[19] = test system: RPMI-8226
[20] = test system: OVCAR-3

Structure (SMILES) | GI50 [1] | GI50 [2] | GI50 [3] | GI50 [4] | GI50 [5] | GI50 [6] | GI50 [7] | GI50 [8] | GI50 [9] | GI50 [10] | GI50 [11] | GI50 [12] | GI50 [13] | GI50 [14] | GI50 [15] | GI50 [16] | GI50 [17] | GI50 [18] | GI50 [19] | GI50 [20]
O=[N+]([O-])c1cccc(-c2cn3c(n2)Cc2ccccc2C3)c1 | 64.1 µM (inactive) | > 100 µM (inactive) | 51.4 µM (inactive) | > 100 µM (inactive) | 28.6 µM (inactive) | 77.4 µM (inactive) | > 100 µM (inactive) | 50.8 µM (inactive) | 15.9 µM (inactive) | 83.4 µM (inactive) | > 100 µM (inactive) | 23.9 µM (inactive) | > 100 µM (inactive) | 57.4 µM (inactive) | > 100 µM (inactive) | 51.2 µM (inactive) | > 100 µM (inactive) | 17.1 µM (inactive) | – | –
CO/C(=N\N=C\c1cccc(Cl)c1)c1ccncc1 | > 10 µM (inactive) | > 10 µM (inactive) | > 10 µM (inactive) | > 10 µM (inactive) | – | > 10 µM (inactive) | > 10 µM (inactive) | > 10 µM (inactive) | > 10 µM (inactive) | > 10 µM (inactive) | – | > 10 µM (inactive) | > 10 µM (inactive) | – | > 10 µM (inactive) | > 10 µM (inactive) | > 10 µM (inactive) | > 10 µM (inactive) | > 10 µM (inactive) | > 10 µM (inactive)
Cc1ccc(N(C)S(=O)(=O)c2ccccc2)cc1 | > 100 µM (inactive) | > 100 µM (inactive) | 84.7 µM (inactive) | > 100 µM (inactive) | 67.5 µM (inactive) | 36.2 µM (inactive) | 34.8 µM (inactive) | > 100 µM (inactive) | > 100 µM (inactive) | 74 µM (inactive) | > 100 µM (inactive) | 86.5 µM (inactive) | > 100 µM (inactive) | > 100 µM (inactive) | – | > 100 µM (inactive) | > 100 µM (inactive) | 47.9 µM (inactive) | 59.8 µM (inactive) | > 100 µM (inactive)
CC[C@](C)(O)C(=O)O[C@H]1C(=O)O[C@@H]2C[C@H]3C(C)=CC(=O)[C@@H](O)[C@]3(C)[C@H]3[C@@]4(O)OC[C@]32[C@@H]1[C@@H](C)[C@H]4O [GLAUCARUBINONE] | 1.21 µM (inactive) | 0.146 µM (active) | 0.0453 µM (active) | 0.39 µM (active) | 0.0442 µM (active) | 0.458 µM (active) | 0.05 µM (active) | 0.425 µM (active) | 0.05 µM (active) | 1.4 µM (inactive) | 0.05 µM (active) | 0.05 µM (active) | 0.292 µM (active) | 0.05 µM (active) | 0.049 µM (active) | 0.378 µM (active) | – | 0.176 µM (active) | 0.0548 µM (active) | 0.0982 µM (active)
CS(=O)(=O)CCC(N)P(=O)(O)O (centres undefined) | > 100 µM (inactive) | > 100 µM (inactive) | > 100 µM (inactive) | > 100 µM (inactive) | > 100 µM (inactive) | > 100 µM (inactive) | > 100 µM (inactive) | > 100 µM (inactive) | > 100 µM (inactive) | > 100 µM (inactive) | > 100 µM (inactive) | > 100 µM (inactive) | > 100 µM (inactive) | – | > 100 µM (inactive) | > 100 µM (inactive) | > 100 µM (inactive) | > 100 µM (inactive) | > 100 µM (inactive) | > 100 µM (inactive)
C=C(COC(=O)C(C)C)[C@H]1Oc2ccc(C(C)=O)cc2[C@@H]1OC(=O)C(C)C | > 100 µM (inactive) | > 100 µM (inactive) | > 100 µM (inactive) | > 100 µM (inactive) | > 100 µM (inactive) | > 100 µM (inactive) | > 100 µM (inactive) | > 100 µM (inactive) | > 100 µM (inactive) | > 100 µM (inactive) | > 100 µM (inactive) | > 100 µM (inactive) | > 100 µM (inactive) | > 100 µM (inactive) | – | > 100 µM (inactive) | > 100 µM (inactive) | > 100 µM (inactive) | 76.4 µM (inactive) | > 100 µM (inactive)
Cc1ccc(Cc2n[nH]c(=O)[nH]2)cc1 | > 100 µM (inactive) | > 100 µM (inactive) | > 100 µM (inactive) | > 100 µM (inactive) | > 100 µM (inactive) | > 100 µM (inactive) | > 100 µM (inactive) | > 100 µM (inactive) | > 100 µM (inactive) | > 100 µM (inactive) | > 100 µM (inactive) | > 100 µM (inactive) | > 100 µM (inactive) | > 100 µM (inactive) | > 100 µM (inactive) | > 100 µM (inactive) | > 100 µM (inactive) | > 100 µM (inactive) | – | > 100 µM (inactive)
O=c1cc(CNC2CCCC2)[nH]c(=O)[nH]1 | > 100 µM (inactive) | > 100 µM (inactive) | > 100 µM (inactive) | > 100 µM (inactive) | > 100 µM (inactive) | > 100 µM (inactive) | > 100 µM (inactive) | > 100 µM (inactive) | > 100 µM (inactive) | > 100 µM (inactive) | > 100 µM (inactive) | > 100 µM (inactive) | > 100 µM (inactive) | > 100 µM (inactive) | – | > 100 µM (inactive) | > 100 µM (inactive) | > 100 µM (inactive) | > 100 µM (inactive) | > 100 µM (inactive)
CCCC(C)c1c(Cl)nc(Cl)nc1Cl (centres undefined) | 10.1 µM (inactive) | 4.79 µM (inactive) | 4.58 µM (inactive) | 20.9 µM (inactive) | 3.41 µM (inactive) | 14.8 µM (inactive) | 3.37 µM (inactive) | 4.72 µM (inactive) | 0.189 µM (active) | 3.75 µM (inactive) | 3.52 µM (inactive) | 1.73 µM (inactive) | 4.21 µM (inactive) | 5.73 µM (inactive) | – | 19.5 µM (inactive) | 8.45 µM (inactive) | 6.38 µM (inactive) | 5.53 µM (inactive) | 9.57 µM (inactive)
C#CCOCC12C=CC(O1)C1C(=O)N(C)C(=O)C12 (centres undefined) | > 100 µM (inactive) | > 100 µM (inactive) | > 100 µM (inactive) | > 100 µM (inactive) | > 100 µM (inactive) | > 100 µM (inactive) | – | > 100 µM (inactive) | > 100 µM (inactive) | > 100 µM (inactive) | > 100 µM (inactive) | > 100 µM (inactive) | > 100 µM (inactive) | > 100 µM (inactive) | – | > 100 µM (inactive) | > 100 µM (inactive) | > 100 µM (inactive) | > 100 µM (inactive) | > 100 µM (inactive)
CCSc1nc(C)nc2c1sc1nc3ccccc3n12 | > 100 µM (inactive) | > 100 µM (inactive) | > 100 µM (inactive) | > 100 µM (inactive) | > 100 µM (inactive) | > 100 µM (inactive) | > 100 µM (inactive) | > 100 µM (inactive) | > 100 µM (inactive) | > 100 µM (inactive) | > 100 µM (inactive) | > 100 µM (inactive) | > 100 µM (inactive) | > 100 µM (inactive) | > 100 µM (inactive) | > 100 µM (inactive) | – | > 100 µM (inactive) | > 100 µM (inactive) | > 100 µM (inactive)
CCN(CC)CCC(=O)NC1c2ccc(Cl)cc2Oc2c(C)cccc21 (centres undefined) | 16.5 µM (inactive) | 12.6 µM (inactive) | 18.5 µM (inactive) | 14.6 µM (inactive) | 13.3 µM (inactive) | 13.2 µM (inactive) | 18.5 µM (inactive) | 16.6 µM (inactive) | 17.2 µM (inactive) | 15.1 µM (inactive) | 14.6 µM (inactive) | 16.3 µM (inactive) | – | 13.2 µM (inactive) | 25.8 µM (inactive) | 8.89 µM (inactive) | – | 14 µM (inactive) | 24.9 µM (inactive) | 15.5 µM (inactive)
Cc1ccc(CCCCCOc2ccc(C3=NCCO3)cc2)s1 | > 100 µM (inactive) | > 100 µM (inactive) | 2.84 µM (inactive) | > 100 µM (inactive) | > 100 µM (inactive) | > 100 µM (inactive) | 9.29 µM (inactive) | 5.68 µM (inactive) | > 100 µM (inactive) | 4.85 µM (inactive) | > 100 µM (inactive) | > 100 µM (inactive) | > 100 µM (inactive) | – | – | > 100 µM (inactive) | > 100 µM (inactive) | > 100 µM (inactive) | > 100 µM (inactive) | > 100 µM (inactive)
O=C(O)CO[C@@]12C#C/C=C\C#C[C@@H]3N(C(=O)Oc4ccccc4)c4ccccc4[C@]14O[C@@]34CCC2 | > 100 µM (inactive) | 26.9 µM (inactive) | 55.2 µM (inactive) | > 100 µM (inactive) | 28 µM (inactive) | 26.2 µM (inactive) | 23.7 µM (inactive) | 14.9 µM (inactive) | 29.7 µM (inactive) | 1.53 µM (inactive) | 52.8 µM (inactive) | 33.4 µM (inactive) | 85.9 µM (inactive) | 31.4 µM (inactive) | 57.4 µM (inactive) | 24.1 µM (inactive) | – | 10.3 µM (inactive) | 31.6 µM (inactive) | 47.1 µM (inactive)
Oc1cc(-c2cccc(Br)c2)nc2cc3c(cc12)OCO3 | 7.24 µM (inactive) | 3.52 µM (inactive) | 1.93 µM (inactive) | 12.9 µM (inactive) | 1.38 µM (inactive) | 5.43 µM (inactive) | 3.74 µM (inactive) | 0.31 µM (active) | 8.38 µM (inactive) | 0.883 µM (active) | 2.77 µM (inactive) | 3.53 µM (inactive) | 5.32 µM (inactive) | 2.19 µM (inactive) | – | 5.81 µM (inactive) | 2.7 µM (inactive) | 14.6 µM (inactive) | 15 µM (inactive) | 3.01 µM (inactive)
